≈ marks a conversion by molar mass, not a printed value. Where two headings read alike, the source gives them in different places.
Tests used:
human FPPS = biological target: T1, human FPPS (Homo sapiens, UniProt P14324); assay: human FPPS assay; assay type: biochemical
T1 sequence (P14324 1-419): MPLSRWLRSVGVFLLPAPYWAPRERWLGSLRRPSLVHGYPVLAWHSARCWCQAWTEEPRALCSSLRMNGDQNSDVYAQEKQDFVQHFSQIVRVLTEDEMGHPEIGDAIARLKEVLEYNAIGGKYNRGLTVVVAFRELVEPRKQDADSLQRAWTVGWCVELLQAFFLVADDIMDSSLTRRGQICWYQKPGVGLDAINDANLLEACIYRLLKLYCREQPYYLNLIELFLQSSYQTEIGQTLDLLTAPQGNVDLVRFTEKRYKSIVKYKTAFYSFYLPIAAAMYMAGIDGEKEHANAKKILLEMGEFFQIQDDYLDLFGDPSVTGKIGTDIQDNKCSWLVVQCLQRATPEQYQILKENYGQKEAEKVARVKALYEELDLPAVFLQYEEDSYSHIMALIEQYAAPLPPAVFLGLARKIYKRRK

Dictyostelium discoideum = assay: D. discoideum cell growth inhibition; assay type: cell-based
Source text: (§1) We then investigated the activity of each compound in inhibiting the FPPS from L. major, in Dictyostelium discoideum growth inhibition and in γδ T cell activation. We used the FPPS from L. major since this enzyme is the putative bisphosphonate target in several trypanosomatid species.

fetal mouse metatarsals = assay: bone resorption assay: 45Ca2+ release from 17-day old fetal mouse metatarsals; assay type: cell-based; conditions: for IC50: Table 4
Method: Compounds are tested in a bone resorption assay: ^45Ca^2+ release from 17-day old fetal mouse metatarsals (ref. 37).

L. major FPPS [1] = biological target: T2, L. major FPPS (Leishmania major, UniProt Q4QBL1); assay: biochemical; assay type: biochemical
T2 sequence (Q4QBL1 1-362): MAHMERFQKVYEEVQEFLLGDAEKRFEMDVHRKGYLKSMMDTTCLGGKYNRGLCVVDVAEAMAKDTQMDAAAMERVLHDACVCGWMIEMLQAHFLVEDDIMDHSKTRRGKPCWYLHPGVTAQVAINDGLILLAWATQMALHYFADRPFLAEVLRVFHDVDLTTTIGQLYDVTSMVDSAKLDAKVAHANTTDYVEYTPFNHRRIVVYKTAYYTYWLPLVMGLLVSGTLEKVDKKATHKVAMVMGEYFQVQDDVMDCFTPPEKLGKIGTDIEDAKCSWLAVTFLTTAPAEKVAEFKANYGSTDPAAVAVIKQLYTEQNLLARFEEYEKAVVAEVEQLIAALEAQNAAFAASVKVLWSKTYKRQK
Source text: as §1

[2] = tested on: human nasopharyngeal carcinoma cells; assay: Toxicity testing in human nasopharyngeal carcinoma cells; assay type: cell-based
Method: We have obtained data for selected bisphosphonate compounds in the contexts of D. discoideum assays, human FPPS assays, gammadelta T cell stimulation assays, and bone resorption assays. […] Some toxicity testing was also performed. See Table 4 (in some instances, the same data depicted elsewhere herein, e.g., in Table 1, may be presented again to facilitate comparative analysis).

Vγ2Vδ2 T cells [3] = assay: gammadelta T cell stimulation (TNF-α release assay); assay type: cell-based, human
Source text: as §1

[4] = biological target: T. brucei soluble vacuolar pyrophosphatase; assay: T. brucei soluble vacuolar pyrophosphatase inhibition; assay type: biochemical, Trypanosoma brucei; conditions: Table 5; read-out: (9) T. brucei soluble vacuolar pyrophosphatase IC50
Source text: We have obtained data for selected bisphosphonate compounds against parasites including Trypanosoma brucei, Trypanosoma cruzi, and Leishmania major. […] See Table 5 (in some instances, the same data depicted elsewhere herein, e.g., in Table 1, may be presented again to facilitate comparative analysis).

pyrophosphatase enzymes = assay: Pyrophosphatase inhibition; assay type: biochemical
Source text: We explored the hypothesis of whether analogs of pyrophosphate could block pyrophosphatase enzymes and/or inhibit cellular growth or function. We used certain bisphosphonate compounds that are currently applied in bone resorption therapy.

parasite cell growth = assay: Parasite cell growth inhibition; assay type: cell-based
Source text: We explored the hypothesis of whether analogs of pyrophosphate could block pyrophosphatase enzymes and/or inhibit cellular growth or function. We used certain bisphosphonate compounds that are currently applied in bone resorption therapy. The compounds included pamidronate (Aredia®, Novartis), alendronate (Fosamax®, Merck), and risedronate (Actonel®, Procter & Gamble). […] Without wishing to be bound by a particular theory, the compounds appeared to act as inhibitors of isoprenoid biosynthesis (FIG. 6).

Vγ2Vδ2 T cells [5] = conditions: TNF-α release, footnote b: data from Ref. 30; read-out: gammadelta T cell stimulation, EC50; cited from earlier work
L. major FPPS [6] = biological target: T2, L. major FPPS; conditions: read-out: L. major FPPS Ki; Table 1, footnote a: data from Ref. 17; cited from earlier work
cutaneous leishmaniasis = assay: Treatment of cutaneous leishmaniasis in mice; assay type: in vivo
Source text: The average lesion size in treated mice was reduced during a time period of several weeks and in a dose-dependent manner relative to […] mice.

[7] = Table 4, read-out: (2) human FPPS IC50
[8] = Table 4, read-out: (1) D. discoideum IC50
[9] = Table 1 and text, read-out: L. major FPPS Ki
[10] = cell growth inhibition, Table 1 and text, read-out: D. discoideum IC50
[11] = TNF-α release, Table 1 and text, read-out: gammadelta T cell stimulation, EC50
[12] = Table 3, additional testing, read-out: gammadelta T cell stimulation EC50
[13] = Dictyostelium discoideum, read-out: (1) D. discoideum IC50
[14] = Homo sapiens, T-cell, read-out: (3) gammadelta T cell stimulation EC50
[15] = Homo sapiens, T-cell, read-out: gammadelta T cell stimulation EC50
[16] = Table 5, read-out: (7) L. major FPPS Ki
[17] = Table 4, read-out: (3) gammadelta T cell stimulation EC50

## CC([n+]1ccccc1)C(O)(P(=O)([O-])O)P(=O)(O)O (single isomer, unassigned) [Compound 591]
Human FPPS; [7]
  IC50: 29 µM
Dictyostelium discoideum; [8]
  IC50: 38 µM

## Cc1ccc[n+](CC(O)(P(=O)([O-])O)P(=O)(O)O)c1 (stereo not drawn) [Compound 297]
Fetal mouse metatarsals
  IC50: 0.22 µM
L. major FPPS [1]; [9]
  Ki: 0.038 µM
Dictyostelium discoideum; [8]
  IC50: 2.8 µM
Dictyostelium discoideum; [10]
  IC50: 1.5 µM
[2]
  (5) Toxicity IC50: 5.3 µg/mL
Vγ2Vδ2 T cells [3]; [11]
  EC50: 4.6 µM
Vγ2Vδ2 T cells [3]; [12]
  EC50: 4.9 µM

## O=P([O-])(O)C(O)(C[n+]1cccc(-c2ccccc2)c1)P(=O)(O)O (stereo not drawn) [Compound 300]
Human FPPS
  IC50: 1.7 µM
Fetal mouse metatarsals; Mus musculus
  IC50: 0.41 µM
Dictyostelium discoideum; [13]
  IC50: 2.8 µM
Dictyostelium discoideum; Dictyostelium discoideum, read-out: D. discoideum IC50
  IC50: 2.8 µM
[2]; read-out: (5) Toxicity IC50
  IC50: 5.4 µg/mL (≈ 15 µM)
Vγ2Vδ2 T cells [3]; [14]
  EC50: 3.7 µM
Vγ2Vδ2 T cells [3]; [15]
  EC50: 2.1 µM
Vγ2Vδ2 T cells [3]; Homo sapiens, T-cell, read-out: gammadelta T cell stimulation, EC50
  EC50: 3.7 µM
[4]
  IC50: 35 µM

## O=P([O-])(O)C(O)(C[n+]1cccc(Cc2ccccc2)c1)P(=O)(O)O (stereo not drawn) [Compound 335]
L. major FPPS [1]; [9]
  Ki: 0.16 µM
L. major FPPS [1]; [16]
  Ki: 0.16 µM
Dictyostelium discoideum; [8]
  IC50: 11 µM
Dictyostelium discoideum; [10]
  IC50: 8.5 µM
Vγ2Vδ2 T cells [3]; TNF-α release
  activity in gammadelta T cell stimulation: poor activity
Vγ2Vδ2 T cells [3]; [11]
  EC50: 430 µM
Vγ2Vδ2 T cells [3]; [12]
  EC50: 63.4 µM
Vγ2Vδ2 T cells [3]; [17]
  EC50: 430 µM
[4]
  IC50: 70 µM

## Cc1cccc(Cc2ccc[n+](CC(O)(P(=O)([O-])O)P(=O)(O)O)c2)c1 (stereo not drawn) [Compound 344]
Human FPPS; [7]
  IC50: 17 µM
L. major FPPS [1]; [9]
  Ki: 0.07 µM
L. major FPPS [1]; [16]
  Ki: 0.07 µM
Dictyostelium discoideum; [8]
  IC50: 8.5 µM
Dictyostelium discoideum; [10]
  IC50: 9.9 µM
Vγ2Vδ2 T cells [3]; TNF-α release
  activity in gammadelta T cell stimulation: poor activity
Vγ2Vδ2 T cells [3]; [11]
  EC50: 140 µM
Vγ2Vδ2 T cells [3]; [17]
  EC50: 140 µM
[4]
  IC50: 78 µM

## O=P([O-])(O)C(O)(C[n+]1cccc(-c2ccc(O)cc2)c1)P(=O)(O)O (stereo not drawn) [Compound 359]
L. major FPPS [1]; [9]
  Ki: 0.075 µM
Dictyostelium discoideum; [8]
  IC50: 2.9 µM
Dictyostelium discoideum; [10]
  IC50: 2.9 µM
Vγ2Vδ2 T cells [3]; [11]
  EC50: 24 µM
Vγ2Vδ2 T cells [3]; [17]
  EC50: 24 µM

## O=P([O-])(O)C(O)(C[n+]1cccc(-c2cccc(-c3ccccc3)c2)c1)P(=O)(O)O (stereo not drawn) [Compound 364]
Human FPPS; [7]
  IC50: 37 µM
Vγ2Vδ2 T cells [3]; [11]
  EC50: > 1000 µM
Vγ2Vδ2 T cells [3]; [17]
  EC50: > 1000 µM

## CCCCc1ccc[n+](CC(O)(P(=O)([O-])O)P(=O)(O)O)c1 (stereo not drawn) [Compound 445]
L. major FPPS [1]; [9]
  Ki: 0.02 µM
Dictyostelium discoideum; [8]
  IC50: 3 µM
Dictyostelium discoideum; [10]
  IC50: 2.9 µM
Vγ2Vδ2 T cells [3]; [11]
  EC50: 5.2 µM
Vγ2Vδ2 T cells [3]; [12]
  EC50: 2.5 µM
Vγ2Vδ2 T cells [3]; [17]
  EC50: 5.2 µM

## COc1ccc[n+](CC(O)(P(=O)([O-])O)P(=O)(O)O)c1 (stereo not drawn) [Compound 446]
Fetal mouse metatarsals
  IC50: 0.37 µM
L. major FPPS [1]; [9]
  Ki: 0.03 µM
Dictyostelium discoideum; [8]
  IC50: 6 µM
Dictyostelium discoideum; [10]
  IC50: 6 µM
Vγ2Vδ2 T cells [3]; [11]
  EC50: 4.6 µM

## CN(C)c1cc[n+](CC(O)(P(=O)([O-])O)P(=O)(O)O)cc1 (stereo not drawn) [Compound 451]
Human FPPS; [7]
  IC50: 280 µM
Dictyostelium discoideum; [8]
  IC50: 31 µM
Vγ2Vδ2 T cells [3]; Table 4
  (3) gammadelta T cell stimulation EC50: inactive

## O=P([O-])(O)C(O)(C[n+]1cccc(F)c1)P(=O)(O)O (stereo not drawn) [Compound 461]
Fetal mouse metatarsals
  potency in bone resorption: very potent
Fetal mouse metatarsals; Mus musculus
  IC50: 0.075 µM
L. major FPPS [1]; [16]
  Ki: 0.05 µM
Dictyostelium discoideum; [13]
  IC50: 3.7 µM
Vγ2Vδ2 T cells [3]; [14]
  EC50: 2.7 µM
Vγ2Vδ2 T cells [3]; [15]
  EC50: 2.7 µM

## O=P([O-])(O)C(C[n+]1cccc(F)c1)P(=O)(O)O (stereo not drawn) [Compound 477]
Human FPPS; [7]
  IC50: 1.4 µM
Dictyostelium discoideum; [8]
  IC50: 2.7 µM
Vγ2Vδ2 T cells [3]; [12]
  EC50: 1.8 µM

## O=P([O-])(O)C(O)(C[n+]1cccc(Br)c1)P(=O)(O)O (stereo not drawn) [Compound 484]
Human FPPS
  IC50: 2.5 µM
Dictyostelium discoideum; [13]
  IC50: 3.5 µM
Vγ2Vδ2 T cells [3]; [15]
  EC50: 4.6 µM

## O=P([O-])(O)C(C[n+]1cccc(C(F)(F)F)c1)P(=O)(O)O (stereo not drawn) [Compound 511]
Human FPPS; [7]
  IC50: 2.5 µM
Dictyostelium discoideum; [8]
  IC50: 4.1 µM
Vγ2Vδ2 T cells [3]; [17]
  EC50: 14 µM

## O=P([O-])(O)C(C[n+]1cccc(Cl)c1)P(=O)(O)O (stereo not drawn) [Compound 526]
Human FPPS; [7]
  IC50: 1.2 µM
Dictyostelium discoideum; [8]
  IC50: 2.1 µM
Vγ2Vδ2 T cells [3]; [17]
  EC50: 8.6 µM

## O=P([O-])(O)C(C[n+]1cccc(I)c1)P(=O)(O)O (stereo not drawn) [Compound 542]
Human FPPS; [7]
  IC50: 1.2 µM
Dictyostelium discoideum; [8]
  IC50: 1.7 µM
Vγ2Vδ2 T cells [3]; [17]
  EC50: 12 µM

## O=P([O-])(O)C(O)(C[n+]1cccc(I)c1)P(=O)(O)O (stereo not drawn) [Compound 582]
Human FPPS; [7]
  IC50: 1.6 µM
Dictyostelium discoideum; [8]
  IC50: 3.5 µM

## CCOc1cccc(-c2ccc[n+](CC(P(=O)([O-])O)P(=O)(O)O)c2)c1 (stereo not drawn) [Compound 588]
Human FPPS; [7]
  IC50: 11 µM
Dictyostelium discoideum; [8]
  IC50: 3.3 µM
Vγ2Vδ2 T cells [3]; [17]
  EC50: 120 µM

## O=P([O-])(O)C(O)(C[n+]1cccc(O)c1)P(=O)(O)O (stereo not drawn) [Compound 595]
Human FPPS; [7]
  IC50: 2.7 µM
Dictyostelium discoideum; [8]
  IC50: 49 µM
Vγ2Vδ2 T cells [3]; [17]
  EC50: 210 µM

## CCCCC#Cc1ccc[n+](CC(P(=O)([O-])O)P(=O)(O)O)c1 (stereo not drawn) [Compound 597]
Human FPPS; [7]
  IC50: 1.9 µM
Vγ2Vδ2 T cells [3]; [17]
  EC50: 58 µM

## NCCCC(O)(P(=O)(O)O)P(=O)(O)O [alendronate]
Pyrophosphatase enzymes
  inhibition of pyrophosphatases: did not appear necessarily to inhibit
Parasite cell growth
  parasite cell growth inhibition: did inhibit
Vγ2Vδ2 T cells [5]
  EC50: 52 µM

## O=P(O)(O)C(NC1CCCCCC1)P(=O)(O)O [incadronate]
L. major FPPS [6]
  Ki: 0.023 µM
Vγ2Vδ2 T cells [5]
  EC50: 15 µM
Dictyostelium discoideum; [10]
  IC50: 1.6 µM

## NCCC(O)(P(=O)(O)O)P(=O)(O)O [pamidronate]
Pyrophosphatase enzymes
  inhibition of pyrophosphatases: did not appear necessarily to inhibit
Parasite cell growth
  parasite cell growth inhibition: did inhibit
Cutaneous leishmaniasis; mice
  treating cutaneous leishmaniasis: effective
Cutaneous leishmaniasis; treated mice, several weeks, dose-dependent
  average lesion size: reduced

## O=P(O)(O)C(O)(Cc1cccnc1)P(=O)(O)O [risedronate]
Pyrophosphatase enzymes
  inhibition of pyrophosphatases: did not appear necessarily to inhibit
Parasite cell growth
  parasite cell growth inhibition: did inhibit
Vγ2Vδ2 T cells [5]
  EC50: 6.2 µM

Source: patent publication US7745422B2, “Bisphosphonate compounds and methods for bone resorption diseases, cancer, bone pain, immune disorders, and infectious diseases” (The Board of Trustees of the University of Illinois, priority 2004, dated 2010)
